“And” between values parts separate entries of the source, which are not always exact repeats. Identical values can stand only once. “Also recorded” adds a separate entry of the source.
Experiments:
[1] = test system: PC-3 PIP and PC-3 flu xenografts in SCID mouse; experiment: SPECT-CT imaging of [125I]3 in PCa tumor models; format: in vivo; conditions: 4 h p.i., PC-3 PIP and PC-3 flu tumors
Method: At 4 and 6 h p.i. the mouse was anesthetized with isoflurane and maintained under 1% isoflurane in oxygen. The mouse was positioned on the X-SPECT (Gamma Medica, Northridge, Calif.) gantry and was scanned using two low energy, high-resolution pinhole collimators (Gamma Medica) rotating through 360° in 6° increments for 45 seconds per increment. All gamma images were reconstructed using Lunagem software (Gamma Medica, Northridge, Calif.) Immediately following SPECT acquisition, the mice were then scanned by CT (X-SPECT) over a 4.6 cm field-of-view using a 600 μA, 50 kV beam. […] Data were reconstructed using the Ordered Subsets-Expectation Maximization (OS-EM) algorithm.

[2] = test system: PC-3 PIP and PC-3 flu xenografts in SCID mouse; experiment: PET-CT imaging of [18F]6; format: in vivo; conditions: 94-120 min p.i., PC-3 PIP and PC-3 flu tumors
Method: Compound [^18F]6. In vivo PET-CT: A SCID mouse bearing subcutaneous PC-3 PIP and PC-3 flu xenografts was anesthetized using 3% isoflurane in oxygen for induction and 1.5% isoflurane in oxygen at 0.8 L/min flow for maintenance and positioned prone on the gantry of a GE eXplore Vista small animal PET scanner (GE Healthcare, Milwaukee, Wis.). The mouse was injected intravenously with 7.4 MBq (200 μCi) of [^18F]6 followed by image acquisition using the following protocol: The images were acquired as a pseudodynamic scan, i.e., a sequence of successive whole-body images acquired in three bed positions for a total of 90 min. The dwell time at each position was 5 minutes, such that a given bed position (or mouse organ) was revisited every 15 min. An energy window of 250-700 keV was used. Images were reconstructed using the FORE/2D-OSEM method (2 iterations, 16 subsets) and included corrections for radioactive decay, scanner dead time and scattered radiation.

[3] = test system: PC-3 PIP (PSMA+) and PC-3 flu (PSMA−) xenograft-bearing SCID mice; experiment: Ex vivo biodistribution in tumor-bearing mice
[4] = biological target: NAALADase (PSMA) prepared from LNCaP cell lysates (Homo sapiens (Human), UniProt Q04609); experiment: NAALADase (radiometric) assay, NAAG hydrolysis; format: biochemical; conditions: [3H]NAAG 30 nM
[5] = biological target: PSMA, lysates of LNCaP cell extracts (Homo sapiens (Human), UniProt Q04609); experiment: fluorescence-based PSMA inhibition assay (Amplex Red glutamic acid kit); format: biochemical; conditions: 4 μM NAAG
Chain of PSMA, lysates of LNCaP cell extracts (Q04609 whole entry): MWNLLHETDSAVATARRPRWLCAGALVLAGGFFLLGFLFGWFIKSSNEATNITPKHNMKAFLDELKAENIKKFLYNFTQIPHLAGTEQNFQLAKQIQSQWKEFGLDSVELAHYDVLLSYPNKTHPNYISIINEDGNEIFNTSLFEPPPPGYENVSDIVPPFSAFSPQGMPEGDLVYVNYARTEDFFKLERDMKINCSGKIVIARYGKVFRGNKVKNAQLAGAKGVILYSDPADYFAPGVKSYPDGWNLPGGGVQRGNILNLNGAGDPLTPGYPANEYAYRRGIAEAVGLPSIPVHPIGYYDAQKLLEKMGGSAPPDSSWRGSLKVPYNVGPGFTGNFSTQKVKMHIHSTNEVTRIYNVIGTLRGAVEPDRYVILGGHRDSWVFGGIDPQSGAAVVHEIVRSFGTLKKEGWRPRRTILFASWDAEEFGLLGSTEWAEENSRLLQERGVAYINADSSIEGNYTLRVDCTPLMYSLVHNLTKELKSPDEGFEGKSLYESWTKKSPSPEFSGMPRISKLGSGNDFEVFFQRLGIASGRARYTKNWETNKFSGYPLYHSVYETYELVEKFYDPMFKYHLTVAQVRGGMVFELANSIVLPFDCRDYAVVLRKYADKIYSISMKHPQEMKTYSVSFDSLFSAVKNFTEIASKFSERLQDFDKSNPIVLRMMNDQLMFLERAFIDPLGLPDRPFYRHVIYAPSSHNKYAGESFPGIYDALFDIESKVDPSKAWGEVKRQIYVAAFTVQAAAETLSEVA

[6] = Stability of radiolabeled product after synthesis; format: physicochemical; conditions: after radiosynthesis and HPLC
Method: Synthesis of 2-[3-(1-carboxy-5-{4-[N′-(4-[^18F]fluoro-benzylidene)-hydrazino]-benzoylamino}-pentyl)-ureido]-pentanedioic acid (^18F]12). 4-[^18F]fluorobenzaldehyde was synthesized by using a known procedure (Nuclear Medicine and Biology 33 (2006) 677-683). To the crude DMSO solution of 4-[^18F]fluorobenzaldehyde was added 1-2 mg of compound 14, 0.2 mL of 50 mM KH2PO4. The vial was closed and heated at 90° C. for […]. The reaction mixture was then purified by HPLC (Ecomosphere C18 10μ, 250×10 mm, H2O/CH3CN/TFA [70/30/0.1], 4 mL/min). The radiochemical yield (decay corrected and based on starting [^18F] fluoride, n=2) was 30-55%. […] The specific activity of final compound was not determined.

For `O=C(O)CCC(NC(=O)NC(CCCCNC(=O)c1ccc([125I])cc1)C(=O)O)C(=O)O` (stereo not drawn) [[^125I]3, 2-{3-[1-carboxy-5-(4-[^125I]iodo-benzoylamino)-pentyl]-ureido}-pentanedioic acid], the “radiopharmaceutical uptake in SPECT-CT image” value [1] was “intense uptake in the PC-3 PIP and absence of uptake in the PC-3 flu tumor; also recorded: uptake within the PSMA+ PIP tumor only”.

With `O=C(O)CCC(NC(=O)NC(CCCCNC(=O)c1ccc([18F])cc1)C(=O)O)C(=O)O` (stereo not drawn) [[^18F]6, 2-{3-[1-carboxy-5-(4-[^18F]fluoro-benzoylamino)-pentyl]-ureido}-pentanedioic acid] the “uptake pattern in PET-CT” value [2] was “easily observed within PIP tumor, none within flu tumor, high renal uptake and a modest degree of liver uptake; also recorded: uptake within the PSMA+ PIP tumor only”, the “PC-3 PIP tumor uptake” value ([3]; 30 min p.i.) was 8.58±3.09 % ID/g and 8.6 ± 3.1 % ID/g and the “PC-3 flu tumor uptake” value ([3]; 30 min p.i.) was 0.8 ± 0.3 % ID/g. For the same molecule, the “PIP tumor:bladder ratio” value ([3]; 30 min p.i.) was “(1)”, the “PIP tumor:blood ratio” value ([3]; 30 min p.i.) was “(3)” and the “PIP tumor:heart ratio” value ([3]; 30 min p.i.) was “(11)”. The “PIP tumor:kidney ratio” value ([3]; 30 min p.i.) was “(0.1)”, the “PIP tumor:large intestine ratio” value ([3]; 30 min p.i.) was “(7)” and the “PIP tumor:liver ratio” value ([3]; 30 min p.i.) was “(1)”. The “PIP tumor:lung ratio” value ([3]; 30 min p.i.) was “(5)”, the “PIP tumor:muscle ratio” value ([3]; 30 min p.i.) was “(4)” and the “PIP tumor:pancreas ratio” value ([3]; 30 min p.i.) was “(11)”. The “PIP tumor:small intestine ratio” value ([3]; 30 min p.i.) was “(5)”, the “PIP tumor:spleen ratio” value ([3]; 30 min p.i.) was “(0.7)” and the “PIP tumor:stomach ratio” value ([3]; 30 min p.i.) was “(11)”. For the same molecule, the “PIP:flu ratio” value ([3]; 30 min p.i.) was 11, the bladder uptake ([3]; 30 min p.i.) was 6.8 ± 3.5 % ID/g and the blood uptake ([3]; 30 min p.i.) was 2.5 ± 1.7 % ID/g. For the same molecule, the heart uptake ([3]; 30 min p.i.) was 0.8 ± 0.1 % ID/g, the kidney uptake ([3]; 30 min p.i.) was 72.05±3.19 % ID/g and 72 ± 3 % ID/g and the large intestine uptake ([3]; 30 min p.i.) was 1.2 ± 0.8 % ID/g. The liver uptake ([3]; 30 min p.i.) was 8.7 ± 1.8 % ID/g, the lung uptake ([3]; 30 min p.i.) was 1.7 ± 0.3 % ID/g and the muscle uptake ([3]; 30 min p.i.) was 2.4 ± 3.1 % ID/g. The pancreas uptake ([3]; 30 min p.i.) was 0.8 ± 0.1 % ID/g, the small intestine uptake ([3]; 30 min p.i.) was 1.7 ± 0.7 % ID/g and the spleen uptake ([3]; 30 min p.i.) was 12.67±0.36 % ID/g and 12.7 ± 0.4 % ID/g. The stomach uptake ([3]; 30 min p.i.) was 0.8 ± 0.1 % ID/g, the “PC-3 PIP tumor uptake” value ([3]; 60 min p.i.) was 6.4 ± 0.9 % ID/g and the “PC-3 flu tumor uptake” value ([3]; 60 min p.i.) was 0.3 ± 0.05 % ID/g. For the same molecule, the “PIP tumor:bladder ratio” value ([3]; 60 min p.i.) was “(0.4)”, the “PIP tumor:blood ratio” value ([3]; 60 min p.i.) was “(9)” and the “PIP tumor:heart ratio” value ([3]; 60 min p.i.) was “(35)”. The “PIP tumor:kidney ratio” value ([3]; 60 min p.i.) was “(0.1)”, the “PIP tumor:large intestine ratio” value ([3]; 60 min p.i.) was “(13)” and the “PIP tumor:liver ratio” value ([3]; 60 min p.i.) was “(1)”. For the same molecule, the “PIP tumor:lung ratio” value ([3]; 60 min p.i.) was “(13)”, the “PIP tumor:muscle ratio” value ([3]; 60 min p.i.) was “(13)” and the “PIP tumor:pancreas ratio” value ([3]; 60 min p.i.) was “(21)”. The “PIP tumor:small intestine ratio” value ([3]; 60 min p.i.) was “(11)”, the “PIP tumor:spleen ratio” value ([3]; 60 min p.i.) was “(1)” and the “PIP tumor:stomach ratio” value ([3]; 60 min p.i.) was “(26)”. The “PIP:flu ratio” value ([3]; 60 min p.i.) was 21, the bladder uptake ([3]; 60 min p.i.) was 17 ± 21 % ID/g and the blood uptake ([3]; 60 min p.i.) was 0.7 ± 0.5 % ID/g. For the same molecule, the heart uptake ([3]; 60 min p.i.) was 0.2 ± 0.02 % ID/g, the kidney uptake ([3]; 60 min p.i.) was 48 ± 5 % ID/g and the large intestine uptake ([3]; 60 min p.i.) was 0.5 ± 0.1 % ID/g. The liver uptake ([3]; 60 min p.i.) was 5.8 ± 0.6 % ID/g, the lung uptake ([3]; 60 min p.i.) was 0.5 ± 0.1 % ID/g and the muscle uptake ([3]; 60 min p.i.) was 0.5 ± 0.7 % ID/g. It also gave a pancreas uptake ([3]; 60 min p.i.) of 0.3 ± 0.1 % ID/g, a small intestine uptake ([3]; 60 min p.i.) of 0.6 ± 0.2 % ID/g and a spleen uptake ([3]; 60 min p.i.) of 7.2 ± 1.6 % ID/g. The stomach uptake ([3]; 60 min p.i.) was 0.25 ± 0.1 % ID/g, the “PC-3 PIP tumor uptake” value ([3]; 2 h p.i.) was 3.7 ± 1.2 % ID/g and the “PC-3 flu tumor uptake” value ([3]; 2 h p.i.) was 0.25 ± 0.1 % ID/g. For the same molecule, the “PIP tumor:bladder ratio” value ([3]; 2 h p.i.) was “(0.3)”, the “PIP tumor:blood ratio” value ([3]; 2 h p.i.) was “(9)” and the “PIP tumor:heart ratio” value ([3]; 2 h p.i.) was “(25)”. For the same molecule, the “PIP tumor:kidney ratio” value ([3]; 2 h p.i.) was “(0.1)”, the “PIP tumor:large intestine ratio” value ([3]; 2 h p.i.) was “(19)” and the “PIP tumor:liver ratio” value ([3]; 2 h p.i.) was “(0.3)”. The “PIP tumor:lung ratio” value ([3]; 2 h p.i.) was “(4)”, the “PIP tumor:muscle ratio” value ([3]; 2 h p.i.) was “(19)” and the “PIP tumor:pancreas ratio” value ([3]; 2 h p.i.) was “(25)”. For the same molecule, the “PIP tumor:small intestine ratio” value ([3]; 2 h p.i.) was “(12)”, the “PIP tumor:spleen ratio” value ([3]; 2 h p.i.) was “(1)” and the “PIP tumor:stomach ratio” value ([3]; 2 h p.i.) was “(13)”. For the same molecule, the “PIP:flu ratio” value ([3]; 2 h p.i.) was 15, the bladder uptake ([3]; 2 h p.i.) was 11 ± 8 % ID/g and the blood uptake ([3]; 2 h p.i.) was 0.4 ± 0.2 % ID/g. It also gave a heart uptake ([3]; 2 h p.i.) of 0.15 ± 0.05 % ID/g, a kidney uptake ([3]; 2 h p.i.) of 29 ± 12 % ID/g and a large intestine uptake ([3]; 2 h p.i.) of 0.2 ± 0.1 % ID/g. The liver uptake ([3]; 2 h p.i.) was 11.7 ± 7.0 % ID/g, the lung uptake ([3]; 2 h p.i.) was 1.0 ± 0.9 % ID/g and the muscle uptake ([3]; 2 h p.i.) was 0.2 ± 0.1 % ID/g. The pancreas uptake ([3]; 2 h p.i.) was 0.15 ± 0.03 % ID/g, the small intestine uptake ([3]; 2 h p.i.) was 0.3 ± 0.2 % ID/g and the spleen uptake ([3]; 2 h p.i.) was 4.4 ± 1.2 % ID/g. For the same molecule, the stomach uptake ([3]; 2 h p.i.) was 0.3 ± 0.1 % ID/g, the “PC-3 PIP tumor uptake” value ([3]; 5 h p.i.) was 3.5 ± 2.3 % ID/g and the “PC-3 flu tumor uptake” value ([3]; 5 h p.i.) was 0.1 ± 0.1 % ID/g. For the same molecule, the “PIP tumor:bladder ratio” value ([3]; 5 h p.i.) was “(0.7)”, the “PIP tumor:blood ratio” value ([3]; 5 h p.i.) was “(117)” and the “PIP tumor:heart ratio” value ([3]; 5 h p.i.) was “(117)”. The “PIP tumor:kidney ratio” value ([3]; 5 h p.i.) was “(0.3)”, the “PIP tumor:large intestine ratio” value ([3]; 5 h p.i.) was “(6)” and the “PIP tumor:liver ratio” value ([3]; 5 h p.i.) was “(3.5)”. The “PIP tumor:lung ratio” value ([3]; 5 h p.i.) was “(35)”, the “PIP tumor:muscle ratio” value ([3]; 5 h p.i.) was “(35)” and the “PIP tumor:pancreas ratio” value ([3]; 5 h p.i.) was “(70)”. The “PIP tumor:small intestine ratio” value ([3]; 5 h p.i.) was “(35)”, the “PIP tumor:spleen ratio” value ([3]; 5 h p.i.) was “(3.5)” and the “PIP tumor:stomach ratio” value ([3]; 5 h p.i.) was “(88)”. The “PIP:flu ratio” value ([3]; 5 h p.i.) was 35, the bladder uptake ([3]; 5 h p.i.) was 5.2 ± 8.9 % ID/g and the blood uptake ([3]; 5 h p.i.) was 0.03 ± 0.00 % ID/g. For the same molecule, the heart uptake ([3]; 5 h p.i.) was 0.03 ± 0.01 % ID/g, the kidney uptake ([3]; 5 h p.i.) was 14 ± 9 % ID/g and the large intestine uptake ([3]; 5 h p.i.) was 0.6 ± 0.6 % ID/g. The liver uptake ([3]; 5 h p.i.) was 1.0 ± 0.6 % ID/g, the lung uptake ([3]; 5 h p.i.) was 0.1 ± 0.1 % ID/g and the muscle uptake ([3]; 5 h p.i.) was 0.1 ± 0.1 % ID/g. It also gave a pancreas uptake ([3]; 5 h p.i.) of 0.05 ± 0.03 % ID/g, a small intestine uptake ([3]; 5 h p.i.) of 0.1 ± 0.04 % ID/g and a spleen uptake ([3]; 5 h p.i.) of 1.0 ± 0.6 % ID/g. The stomach uptake ([3]; 5 h p.i.) was 0.04 ± 0.02 % ID/g.

For `O=C(O)CCC(NC(=O)NC(CCCCNC(=O)c1ccc(F)cc1)C(=O)O)C(=O)O` (stereo not drawn) [Compound 6, 2-{3-[1-Carboxy-5-(4-fluoro-benzoylamino)-pentyl]-ureido}-pentanedioic acid], the Ki [4] was 0.256 nM, the Ki [5] was 0.194 nM and the “PIP:flu ratio” value ([3]; 5 h p.i.) was 31.

For `O=C(O)CCC(NC(=O)NC(CCCCNC(=O)c1ccc(NN=Cc2ccc(F)cc2)cc1)C(=O)O)C(=O)O` (stereo not drawn) [Compound 12, 2-[3-(1-carboxy-5-{4-[N′-(4-fluoro-benzylidene)-hydrazino]-benzoylamino}-pentyl)-ureido]-pentanedioic acid], the “stability of compound after preparation” value [6] was “decomposed soon after been made”.

From patent US12070513B2, “PSMA-binding agents and uses thereof” (The Johns Hopkins University, priority 2008, dated 2024)
